Read-outs that look alike come from different tables or passages of the source. Marks after values point to notes of the source that are not given here.
How the values were obtained:
[1] = tested on: taux cérébraux de sérotonine; assay: Brain serotonin levels after administration (Curzon and Green method); format: in vivo
Text: En particulier, les composés utilisés comme principes actifs des compositions pharmaceutiques de la présente invention, in vivo, ne provoquent pas de déplétion de sérotonine au niveau central. Le tableau II ci-dessous résume les taux cérébraux de sérotonine, en pourcentage par rapport aux contrôles, après administration orale ou intrapéritonéale de quatre ingrédients actifs des compositions pharmaceutiques de la présente invention. La détermination des taux cérébraux, selon Curzon et Green (Brit. J. Pharmacol. 39, 653, 1970), a été effectuée une heure et/ou deux heures après l'administration. La fenfluramine a été utilisée comme produit de référence.

[2] = Acute toxicity (DL50) in the rat; settings: in vivo
Text: (§1) Dans le tableau I sont reportés, pour cinq composés représentatifs utiles comme ingrédients actifs dans les compositions selon l'invention: • - la toxicité aiguë, exprimée comme DL50 chez le rat par voie orale ou par voie intrapéritonéale (donnée A); • - l'activité anorexigène, exprimée comme dose orale ou intrapéritonéale inhibant de 50% la prise de nourriture (DE50, donnée B); • - le rapport entre la toxicité aiguë et l'activité anorexigène qui exprime l'index thérapeutique lié à la toxicité aiguë (donnée A/B).

[3] = tested on: prise de nourriture chez le rat; assay: Anorectic activity, food intake method in the rat; format: in vivo; settings: for A/B (index thérapeutique lié à la toxicité aiguë): DL50/DE50; for ED50: 1 h, rat, 30 minutes before food, food consumed in first hour, read-out: B DE50 (dose inhibant de 50% la prise de nourriture)
Method: L'activité anorexigène a été évaluée par la méthode de la prise de nourriture chez le rat. On a utilisé des rats femelles de 200 g entrainés pendant 10 jours à manger durant une période de 4 heures et sélectionnés au huitième jour. Au bout du dixième jour, les animaux randomisés ont été divisés en un "groupe contrôle", traité par le seul véhicule, et en plusieurs "groupes traités". Le traitement a été effectué par voie orale et/ou intrapéritonéale 30 minutes avant la présentation de la nourriture et, ensuite, on a mesuré la quantité de nourriture consommée au cours de la première heure.
as §1

[4] = molecular target: récepteurs post-synaptiques de la sérotonine; assay: 3H-serotonin binding to rat cortex membranes (Peroutka and Snyder method); settings: fixed concentration of 3H-serotonin
Text: L'affinité des composés de la présente invention pour les récepteurs post-synaptiques de la' sérotonine a été déterminée selon la méthode de Peroutka et Snyder (Molec. Pharmacol. 1979, 16, 687-699) qui consiste à incuber des membranes de cortex de rat avec une concentration fixée de ^3H-sérotonine en présence de différentes concentrations de produit. Le tableau III montre la concentration molare de trois ingrédients actifs représentatifs de la présente invention qui donne une inhibition de 50% du binding spécifique au récepteur sérotoninergique (IC50), à savoir la mesure de la capacité du produit d'intéragir avec la ^3H-sérotonine dans le binding à son récepteur. La fenfluramine et la 3-(3-trifluorométhylphényl)-1-propyl-1,2,5,6-tétrahydropyridine (Composé A), décrite par le brevet allemand 2 904 826, ont été utilisées comme composés de référence.

Row | Compound | taux cérébraux de sérotonine % par rapport aux contrôles ([1]; os, 15 mg/kg, 2 h.) | taux cérébraux de sérotonine % par rapport aux contrôles ([1]; os, 7,5 mg/kg, 2 h.) | LD50 ([2]; po, os) | A/B (index thérapeutique lié à la toxicité aiguë) ([3]; os) | ED50 ([3]; po, os) | taux cérébraux de sérotonine % par rapport aux contrôles ([1]; i.p., 15 mg/kg, 2 h.) | taux cérébraux de sérotonine % par rapport aux contrôles ([1]; i.p., 7,5 mg/kg, 2 h.) | LD50 ([2]; ip) | A/B (index thérapeutique lié à la toxicité aiguë) ([3]; i.p.) | ED50 ([3]; ip, i.p.) | taux cérébraux de sérotonine % par rapport aux contrôles ([1]; i.p., 15 mg/kg, 1 h.) | taux cérébraux de sérotonine % par rapport aux contrôles ([1]; i.p., 30 mg/kg, 2 h.) | taux cérébraux de sérotonine (result in words) ([1]; at anorectic doses) | taux cérébraux de sérotonine % par rapport aux contrôles ([1]; i.p., 5,0 mg/kg, 1 h.) | taux cérébraux de sérotonine % par rapport aux contrôles ([1]; i.p., 7,5 mg/kg, 1 h.) | IC50 [4]
1 | CCCCCN1CC=C(c2cccc(C(F)(F)F)c2)CC1 [CM 57756, chlorhydratede 4-(3-trifluorométhylphényl)-1-n-pentyl-1,2,3,6-tétrahydropyridine] | 125 * % | 138 ** % | 311 mg/kg | 35,4 | 8.8 mg/kg | – | – | – | – | – | – | – | – | – | – | –
2 | CCCN1CC=C(c2cccc(C(F)(F)F)c2)CC1 [CM 57545, chlorhydratede 4-(3-trifluorométhylphényl)-1-propyl-1,2,3,6-tétrahydropyridine] | – | – | 178 mg/kg | 22,2 | 8 mg/kg | 112% | 103% | 124 mg/kg | 17,7 | 7 mg/kg | – | – | – | – | – | –
3 | FC(F)(F)c1cccc(C2=CCNCC2)c1 [CM 57235, chlorhydratede 4-(3-triflüorométhylphényl)-1,2,3,6-tétrahydropyridine] | – | – | 346 mg/kg | 22 | 15.7 mg/kg | 102% | 112,0% | 94.6 mg/kg | 11,2 | 8.4 mg/kg | 106% | – | – | – | – | –
4 | FC(F)(F)c1cccc(C2=CCN(Cc3ccccc3)CC2)c1 [CM 57451, chlorhydratede 4-(3-trifluorométhylphényl)-1-benzyl-1,2,3,6-tétrahydropyridine] | – | – | 600 mg/kg | 33,3 | 18 mg/kg | 112,0% | – | 220 mg/kg | 14,6 | 15 mg/kg | 121,2% | 119,0% | – | – | – | –
5 | CCNC(C)Cc1cccc(C(F)(F)F)c1 (stereo not drawn) [fenfluramine, reference compound] | – | – | 100 mg/kg | 25,1 | 4 mg/kg | – | 53,1 ** % | 85.6 mg/kg | 15,8 | 5.4 mg/kg | – | – | réduction importante de sérotonine cérébrale | 82,9 * % | 81,6 * % | > 10 µM
6 | CN1CC=C(c2cccc(C(F)(F)F)c2)CC1 [CM 57548, chlorhydratede 4-(3-trifluorométhylphényl)-1-méthyl-1,2,3,6-tétrahydropyridine] | – | – | – | – | – | – | – | 186 mg/kg | 15,2 | 12.2 mg/kg | – | – | – | – | – | –
